Data: US20050192279A1, “Pyridazinones as antagonists of alpha4 integrins” (priority 2004, published 2005)
pIC50: −log10 of the molar value.

Experiments:
α4β1 = target: T1, α4β1 (Homo sapiens, UniProt P05556+P13612); assay: Ramos Cell Adhesion Assay (α4β1 Mediated Adhesion/VCAM-1); format: cell-based; conditions: Ramos cell adhesion to hVCAM-1; read-out: α4β1 IC50
T1 construct: Ramos Cell Adhesion Assay (α4β1 Mediated Adhesion/VCAM-1); endogenous in cells; host or cells: Ramos cells
Experimental: Ramos Cell Adhesion Assay (α4β1 Mediated Adhesion/VCAM-1)
Immulon 96 well plates (Dynex) were coated with 100 μL recombinant hVCAM-1 at 4.0 μg/mL in 0.05 M NaCO3 buffer pH 9.0 overnight at 4° C. (R&D Systems). Plates were washed 2 times in PBS with 1% BSA and blocked for 1 h @ room temperature in this buffer. PBS was removed and compounds to be tested (50 μL) were added at 2× concentration. Ramos cells, (50 μL at 2×10^6/mL) labeled with 5 μM Calcein AM (Molecular Probes) for 1 h at 37° C., were added to each well and allowed to adhere for 1 h at room temperature. Plates were washed 4× in PBS+1% BSA and cells were lysed for 15 minutes in 100 μL of 1 M Tris pH 8.0 with 1% SDS.

human α4β7 integrin = target: T2, human α4β7 integrin (Homo sapiens, UniProt P13612+P26010); assay: α4β7-K562 Cell Adhesion Assay (α4β7 Mediated Adhesion/MAdCAM-1); format: cell-based; conditions: α4β7-K562 cell adhesion to hMAdCAM-1; read-out: α4β7 IC50
T2 construct: expressed in transfected cells; host or cells: K562 cells, stably transfected
T2 sequence (P13612 34-1032): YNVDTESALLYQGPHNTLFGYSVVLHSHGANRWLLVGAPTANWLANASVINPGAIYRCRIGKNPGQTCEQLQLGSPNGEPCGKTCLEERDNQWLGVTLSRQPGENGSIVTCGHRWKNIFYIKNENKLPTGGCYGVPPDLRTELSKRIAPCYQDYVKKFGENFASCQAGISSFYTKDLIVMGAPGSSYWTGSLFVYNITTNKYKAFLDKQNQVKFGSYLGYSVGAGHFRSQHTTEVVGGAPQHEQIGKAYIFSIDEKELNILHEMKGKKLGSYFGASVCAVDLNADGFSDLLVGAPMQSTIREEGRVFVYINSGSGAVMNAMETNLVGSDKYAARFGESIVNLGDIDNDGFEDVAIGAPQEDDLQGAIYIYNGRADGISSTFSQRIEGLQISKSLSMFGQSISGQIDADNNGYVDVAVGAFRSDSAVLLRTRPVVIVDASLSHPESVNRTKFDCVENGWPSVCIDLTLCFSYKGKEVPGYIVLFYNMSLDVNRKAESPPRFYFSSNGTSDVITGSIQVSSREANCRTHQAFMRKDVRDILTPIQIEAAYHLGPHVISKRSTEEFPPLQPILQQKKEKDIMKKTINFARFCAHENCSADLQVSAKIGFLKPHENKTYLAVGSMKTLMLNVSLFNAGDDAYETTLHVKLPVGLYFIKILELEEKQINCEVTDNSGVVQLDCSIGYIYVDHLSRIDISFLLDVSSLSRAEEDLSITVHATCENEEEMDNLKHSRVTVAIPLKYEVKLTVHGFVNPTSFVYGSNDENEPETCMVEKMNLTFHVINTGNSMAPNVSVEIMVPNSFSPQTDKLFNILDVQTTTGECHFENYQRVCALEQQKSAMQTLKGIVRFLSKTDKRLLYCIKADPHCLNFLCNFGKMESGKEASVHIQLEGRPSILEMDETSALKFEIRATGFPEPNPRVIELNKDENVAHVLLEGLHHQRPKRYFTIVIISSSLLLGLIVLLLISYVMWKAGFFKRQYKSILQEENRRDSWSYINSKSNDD
T2 sequence (P26010 20-798): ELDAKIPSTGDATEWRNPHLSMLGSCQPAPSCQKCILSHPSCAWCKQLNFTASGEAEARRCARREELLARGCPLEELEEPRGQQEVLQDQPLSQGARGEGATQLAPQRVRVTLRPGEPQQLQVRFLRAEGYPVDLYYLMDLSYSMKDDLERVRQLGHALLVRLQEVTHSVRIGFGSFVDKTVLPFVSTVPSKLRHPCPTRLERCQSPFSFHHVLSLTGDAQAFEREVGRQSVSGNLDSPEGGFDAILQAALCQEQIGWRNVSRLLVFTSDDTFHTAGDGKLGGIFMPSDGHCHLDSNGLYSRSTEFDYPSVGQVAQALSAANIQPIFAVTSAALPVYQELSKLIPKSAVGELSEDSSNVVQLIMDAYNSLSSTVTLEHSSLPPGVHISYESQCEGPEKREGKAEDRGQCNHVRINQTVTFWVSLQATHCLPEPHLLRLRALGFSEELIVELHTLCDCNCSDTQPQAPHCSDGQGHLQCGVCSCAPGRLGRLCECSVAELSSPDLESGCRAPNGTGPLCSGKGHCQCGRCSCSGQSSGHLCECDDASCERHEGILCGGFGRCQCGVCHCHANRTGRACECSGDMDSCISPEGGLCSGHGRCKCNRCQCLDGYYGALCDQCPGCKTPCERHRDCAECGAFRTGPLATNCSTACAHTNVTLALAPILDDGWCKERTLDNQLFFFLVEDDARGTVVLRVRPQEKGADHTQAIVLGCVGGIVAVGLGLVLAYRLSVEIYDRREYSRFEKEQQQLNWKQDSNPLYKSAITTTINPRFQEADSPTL
Experimental: α4β7-K562 Cell Adhesion Assay (α4β7 Mediated Adhesion/MAdCAM-1)
M2 anti-FLAG Antibody Coated 96-well plates (Sigma) were coated for 1 hour at 4° C. with 2-8 μl/well recombinant FLAG-hMAdCAM-1 contained in 100 μL of Dulbecco's PBS, pH 7.4, with 1% BSA and 1 mM Mn ^+2 (PBS-BSA-Mn). Plates were washed once with PBS-BSA-Mn. Buffer was removed and compounds to be tested (50 μL) were added at 2× concentration. Stably transfected K562 cells expressing human α4β7 integrin, (50 μL at 2×10^6/mL) that had been labeled with 100 μg/ml carboxymethyl fluorescein diacetate succinimidyl ester (CFDA-SE; Molecular Probes) for 15 min at 37° C. were added to each well and allowed to adhere for 1 h at room temperature. Plates were washed 4× in PBS-BSA-Mn and then cells were lysed for 2 minutes by addtion of 100 μL of PBS without Ca, Mg supplemented with 0.1 M NaOH.

T1 sequence (P05556 21-798, one chain of several): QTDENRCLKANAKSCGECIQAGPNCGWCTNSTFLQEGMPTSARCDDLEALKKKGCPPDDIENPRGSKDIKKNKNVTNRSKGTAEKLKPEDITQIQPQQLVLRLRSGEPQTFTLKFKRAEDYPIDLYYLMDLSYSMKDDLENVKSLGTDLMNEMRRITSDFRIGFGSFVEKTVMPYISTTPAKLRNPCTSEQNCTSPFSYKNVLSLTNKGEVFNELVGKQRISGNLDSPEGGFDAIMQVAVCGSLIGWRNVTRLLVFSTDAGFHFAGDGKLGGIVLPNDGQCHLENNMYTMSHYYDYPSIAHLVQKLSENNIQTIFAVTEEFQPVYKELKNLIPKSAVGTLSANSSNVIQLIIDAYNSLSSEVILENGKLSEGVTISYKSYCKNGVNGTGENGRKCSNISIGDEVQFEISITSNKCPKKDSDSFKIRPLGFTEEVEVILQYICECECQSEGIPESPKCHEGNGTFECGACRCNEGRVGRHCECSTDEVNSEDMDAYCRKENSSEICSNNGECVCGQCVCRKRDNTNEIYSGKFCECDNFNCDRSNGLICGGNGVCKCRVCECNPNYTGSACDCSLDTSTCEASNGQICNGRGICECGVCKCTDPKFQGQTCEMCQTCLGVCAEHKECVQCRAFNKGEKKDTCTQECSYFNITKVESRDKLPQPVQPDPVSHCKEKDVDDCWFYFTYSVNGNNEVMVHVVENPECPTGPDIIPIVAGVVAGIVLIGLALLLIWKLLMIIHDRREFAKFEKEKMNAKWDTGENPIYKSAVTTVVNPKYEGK

pIC50 (α4β1) | pIC50 (human α4β7 integrin) | SMILES
5.62 | 7.31 | COCCOCCOC(=O)[C@H](Cc1ccc(-c2c(OC)cnn(C)c2=O)cc1)NC(=O)c1c(Cl)cccc1Cl [Cpd 91]
< 5.30 | 7.28 | CC(C)(C)C(=O)Cn1ncc(NC2CC2)c(-c2ccc(C[C@H](NC(=O)c3c(Cl)cccc3Cl)C(=O)O)cc2)c1=O [Cpd 92]
< 5.30 | 7.28 | O=C(N[C@@H](Cc1ccc(-c2c(Cl)cnn(CC3CC3)c2=O)cc1)C(=O)O)c1c(Cl)cccc1Cl [Cpd 93, (S)-3-[4-(5-Chloro-2-cyclopropylmethyl-3-oxo-2,3-dihydro-pyridazin-4-yl)-phenyl]-2-(2,6-dichloro-benzoylamino)-propionic acid]
5.88 | 7.28 | O=C(N[C@@H](Cc1ccc(-c2c(-n3cc(Br)cn3)cnn(CCO)c2=O)cc1)C(=O)O)c1c(Cl)cccc1Cl [Cpd 94]
6.32 | 7.27 | Cn1ncc(O)c(-c2ccc(C[C@H](NC(=O)c3c(Cl)cccc3Cl)C(=O)O)cc2)c1=O [Cpd 95, (S)-2-(2,6-Dichloro-benzoylamino)-3-[4-(5-hydroxy-2-methyl-3-oxo-2,3-dihydro-pyridazin-4-yl)-phenyl]-propionic acid]
5.75 | 7.25 | COc1cnn(C)c(=O)c1-c1ccc(C[C@H](NC(=O)CN(C)C(=O)OCc2ccccc2)C(=O)O)cc1 [Cpd 96]
5.49 | 7.24 | COc1cnn(C)c(=O)c1-c1ccc(CC(NC(=O)c2c(Cl)cccc2Cl)C(=O)OCCO)cc1 (centres unmarked) [Cpd 97, 2-(2,6-Dichloro-benzoylamino)-3-[4-(5-methoxy-2-methyl-3-oxo-2,3-dihydro-pyridazin-4-yl)-phenyl]-propionic acid 2-hydroxy-ethyl ester]
5.42 | 6.61 | COc1cnn(C)c(=O)c1-c1ccc(C[C@H](NC(=O)C2(NC3CCCCC3)CCOCC2)C(=O)O)cc1 [Cpd 98]
6.58 | 7.22 | COc1cnn(C)c(=O)c1-c1ccc(C[C@H](NC(=O)C23CCC(CC2)CN3)C(=O)O)cc1 [Cpd 99]
6.57 | 7.22 | COc1cnn(C)c(=O)c1-c1ccc(C[C@H](NC(=O)[C@@H]2C3CCC(CC3)N2C(=O)CCC(C)C)C(=O)O)cc1 [Cpd 100]
6.20 | 7.17 | COc1cnn(C)c(=O)c1-c1ccc(C[C@H](NC(=O)[C@@H]2C3CCC(CC3)N2C(=O)OCc2ccccc2)C(=O)O)cc1 [Cpd 103]
6.51 | 7.15 | COc1cnn(C)c(=O)c1-c1ccc(CC(NC(=O)C(NC(=O)Cc2ccsc2)C(C)C)C(=O)O)cc1 (centres unmarked) [Cpd 107, 3-[4-(5-Methoxy-2-methyl-3-oxo-2,3-dihydro-pyridazin-4-yl)-phenyl]-2-[3-methyl-2-(2-thiophen-3-yl-acetylamino)-butyrylamino]-propionic acid]
8.57 | 7.14 | COc1cnn(C)c(=O)c1-c1ccc(C[C@H](NC(=O)[C@@H]2C3CCC(CC3)N2S(=O)(=O)c2ccccc2)C(=O)O)cc1 [Cpd 108]
< 5.30 | 7.09 | CC(C)COC(=O)N[C@@H](Cc1ccc(-c2c(OCC(C)C)cnn(C)c2=O)cc1)C(=O)O [Cpd 111]
6.54 | 7.07 | Cn1ncc(OC(F)F)c(-c2ccc(C[C@H](NC(=O)c3c(Cl)cccc3Cl)C(=O)O)cc2)c1=O [Cpd 112, (S)-2-(2,6-Dichloro-benzoylamino)-3-[4-(5-difluoromethoxy-2-methyl-3-oxo-2,3-dihydro-pyridazin-4-yl)-phenyl]-propionic acid]
7.36 | 7.06 | COc1cnn(C)c(=O)c1-c1ccc(C[C@H](NC(=O)[C@@H]2C3CCC(CC3)N2C(=O)Cc2ccsc2)C(=O)O)cc1 [Cpd 113]
< 5.30 | 7.03 | COc1cnn(C)c(=O)c1-c1ccc(C[C@H]2C(=O)OCN2C(=O)c2c(Cl)cccc2Cl)cc1 [Cpd 114, (S)-4-{4-[3-(2,6-Dichloro-benzoyl)-5-oxo-oxazolidin-4-ylmethyl]-phenyl}-5-methoxy-2-methyl-2H-pyridazin-3-one]
7.20 | 7.03 | COc1cnn(C)c(=O)c1-c1ccc(C[C@H](NC(=O)C23CCC(CC2)CN3C(=O)CCc2ccco2)C(=O)O)cc1 [Cpd 115]
6.18 | 7.01 | COc1cnn(C)c(=O)c1-c1ccc(C[C@H](NC(=O)C2(N)CCOCC2)C(=O)O)cc1 [Cpd 116]
6.29 | 6.99 | COc1cnn(Cc2ccccc2)c(=O)c1-c1ccc(C[C@H](NC(=O)c2c(Cl)cccc2Cl)C(=O)O)cc1 [Cpd 117]
5.89 | 6.99 | COc1cnn(C)c(=O)c1-c1ccc(C[C@H](NC(=O)c2c(Cl)cccc2Cl)C(=O)OCCN2CCOCC2)cc1 [Cpd 118]
5.42 | 6.98 | COc1cnn(C)c(=O)c1-c1ccc(C[C@H](NC(=O)c2c(Cl)cccc2Cl)C(=O)NCCO)cc1 [Cpd 119]
< 5.30 | 6.94 | CCOC(=O)Cc1cnn(C)c(=O)c1-c1ccc(C[C@H](NC(=O)c2c(Cl)cccc2Cl)C(=O)O)cc1 [Cpd 121, (S)-2-(2,6-dichloro-benzoylamino)-3-[4-(5ethoxycarbonylmethyl-2-methyl-3-oxo-2,3-dihydro-pyridazin-4-yl)-phenyl]-propionic acid]
6.85 | 6.93 | COc1cnn(C)c(=O)c1-c1ccc(C[C@H](NC(=O)C23CCC(CC2)CN3C(=O)CCc2cnc[nH]2)C(=O)O)cc1 [Cpd 122]
< 6.00 | 6.92 | COc1cnn(C)c(=O)c1-c1ccc(C[C@H](NC(=O)CC(C)C)C(=O)O)cc1 [Cpd 124]
6.95 | 6.91 | COCCC(=O)N1C2CCC(CC2)[C@H]1C(=O)N[C@@H](Cc1ccc(-c2c(OC)cnn(C)c2=O)cc1)C(=O)O [Cpd 125]
5.61 | 6.90 | COc1cnn(C)c(=O)c1-c1ccc(C[C@H](NC(=O)C23CCC(CC2)CN3C(=O)OC(C)(C)C)C(=O)O)cc1 [Cpd 126]
< 6.00 | 6.88 | COc1cnn(C)c(=O)c1-c1ccc(C[C@H](NC(=O)[C@@H](O)C(C)C)C(=O)O)cc1 [Cpd 127]
